Data taken from patent US10407445B2, “Hepatitis C virus inhibitors” (ENANTA PHARMACEUTICALS, INC., priority 2013, dated 2019).

Key:
Type in all cases: cell-based
[1] = tested on: GT1a replicon encoding NS5A mutation Y93C; experiment: Transient replication assay, GT1a replicon with NS5A mutation Y93C; conditions: Hepatitis C virus, read-out: EC50 1a Y93C
HCV GT 2a-J6 replicon = experiment: HCV replicon assay, GT2a chimeric replicon expressing NS5A from GT2a strain J6; conditions: Hepatitis C virus, 72 h, read-out: EC50 2a J6
How it was run: (§1)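 Stable Huh-7.5 lines carried JFH-1 subgenomic replicons with hRluc-Neo reporter, in which NS5A was swapped for GT3a strain S52 or GT2a strain J6 NS5A. Renilla luciferase was read after 72 h relative to DMSO controls.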

[2] = tested on: GT1a replicon encoding NS5A mutation Q30R; experiment: Transient replication assay, GT1a replicon with NS5A mutation Q30R; conditions: Hepatitis C virus, read-out: EC50 1a Q30R
HCV GT 3a replicon = experiment: HCV replicon assay, GT2a chimeric replicon expressing NS5A from GT3a strain S52; conditions: Hepatitis C virus, 72 h, read-out: EC50 3a
How it was run: as §1

HCV GT 1b replicon = experiment: HCV replicon assay, stable GT 1b replicon (Renilla luciferase); conditions: Hepatitis C virus, GT1B, 72 h
How it was run: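 Stable Huh-7.5-based GT1b replicon (Con1-derived) carrying hRluc-Neo, 4000 cells/well seeded onto a sixteen-point half-log compound series in G418-free, phenol red-free medium. After 72 h, Renilla luciferase is read relative to DMSO controls; CC50 in the same cells by CellTiter-Glo.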

[3] = tested on: GT1a replicon encoding NS5A mutation M28T; experiment: Transient replication assay, GT1a replicon with NS5A mutation M28T; conditions: Hepatitis C virus, read-out: EC50 1a M28T

Row | SMILES | EC50 [1] [nM] | EC50 (HCV GT 2a-J6 replicon) [nM] | EC50 [2] [nM] | EC50 (HCV GT 3a replicon) [nM] | EC50 (HCV GT 1b replicon) [nM] | EC50 [3] [nM]
1 | COC(=O)N[C@H](C(=O)N1CCC[C@H]1c1nc2ccc3cc(-c4ccc5c(ccc6nc([C@@H]7C[C@@]8(CCCOC8)CN7C(=O)[C@@H](NC(=O)OC)C(C)C)[nH]c65)c4)ccc3c2[nH]1)C(C)C [Compound 48] | 0.02 | 0.03 | 0.05 | 0.07 | 0.009 | 0.05
2 | COC(=O)N[C@H](C(=O)N1C[C@@]2(CCOC2)C[C@H]1c1ncc(-c2ccc(-c3ccc4c(ccc5nc([C@@H]6C[C@]7(CCOC7)CN6C(=O)[C@@H](NC(=O)OC)C(C)C)[nH]c54)c3)cc2)[nH]1)C(C)C [Compound 49] | 0.4 | 23 | 0.2 | 5 | 0.009 | 1
3 | COC(=O)N[C@H](C(=O)N1C[C@@]2(CCOC2)C[C@H]1c1ncc(-c2ccc(-c3ccc4c(ccc5nc([C@@H]6CCCN6C(=O)[C@@H](NC(=O)OC)C(C)C)[nH]c54)c3)cc2)[nH]1)C(C)C [Compound 50] | 0.4 | 13 | 0.4 | 10 | 0.016 | 0.5
4 | COC(=O)N[C@H](C(=O)N1CCC[C@H]1c1ncc(-c2ccc(-c3ccc4c(ccc5nc([C@@H]6C[C@]7(CCOC7)CN6C(=O)[C@@H](NC(=O)OC)C(C)C)[nH]c54)c3)cc2)[nH]1)C(C)C [Compound 51] | 0.07 | 4 | 0.2 | 2 | 0.016 | 0.1
5 | COC(=O)N[C@H](C(=O)N1C[C@]2(CCCCO2)C[C@H]1c1nc(-c2ccc(-c3ccc4c(ccc5nc([C@@H]6CCCN6C(=O)[C@@H](NC(=O)OC)C(C)C)[nH]c54)c3)cc2)c[nH]1)C(C)C [Example 2] | 0.2 | 27 | 0.03 | 1 | 0.007 | 0.1
6 | COC(=O)N[C@H](C(=O)N1C[C@@]2(CCCCO2)C[C@H]1c1nc(-c2ccc(-c3ccc4c(ccc5nc([C@@H]6CCCN6C(=O)[C@@H](NC(=O)OC)C(C)C)[nH]c54)c3)cc2)c[nH]1)C(C)C [Example 3] | 0.7 | 267 | 5 | 156 | 0.04 | 6
7 | COC(=O)N[C@H](C(=O)N1C[C@]2(CCCO2)C[C@H]1c1ncc(-c2ccc(-c3ccc4c(ccc5nc([C@@H]6CCCN6C(=O)[C@@H](NC(=O)OC)C(C)C)[nH]c54)c3)cc2)[nH]1)C(C)C [Example 81] | 0.2 | 45 | 0.05 | 3 | 0.013 | 0.3
8 | COC(=O)N[C@H](C(=O)N1C[C@@]2(CCCO2)C[C@H]1c1ncc(-c2ccc(-c3ccc4c(ccc5nc([C@@H]6CCCN6C(=O)[C@@H](NC(=O)OC)C(C)C)[nH]c54)c3)cc2)[nH]1)C(C)C [Example 82] | 0.2 | 40 | 3 | 5 | 0.008 | 14
9 | COC(=O)N[C@H](C(=O)N1CC2(CCOCC2)C[C@H]1c1ncc(-c2ccc(-c3ccc4c(ccc5nc([C@@H]6CCCN6C(=O)[C@@H](NC(=O)OC)C(C)C)[nH]c54)c3)cc2)[nH]1)C(C)C [Example 83] | 1 | 32 | 1 | 0.7 | 0.042 | 0.9
10 | COC(=O)N[C@H](C(=O)N1CCC[C@H]1c1nc2ccc3cc(-c4ccc5c(ccc6nc([C@@H]7CCCN7C(=O)[C@@H](NC(=O)OC)C(C)C)[nH]c65)c4)ccc3c2[nH]1)C(C)C [Example 101] | 0.5 | 0.1 | 0.2 | 0.05 | 0.021 | 1
11 | COC(=O)N[C@H](C(=O)N1CCC[C@H]1c1ncc(-c2ccc(-c3ccc4c(ccc5nc([C@@H]6CCCN6C(=O)[C@@H](NC(=O)OC)C(C)C)[nH]c54)c3)cc2)[nH]1)C(C)C [Example 102] | 0.6 | 1 | 1 | 0.06 | 0.014 | 1
12 | COC(=O)N[C@H](C(=O)N1CCC[C@H]1c1nc2ccc(C#Cc3ccc4c(ccc5nc([C@@H]6CCCN6C(=O)[C@@H](NC(=O)OC)C(C)C)[nH]c54)c3)cc2[nH]1)C(C)C [Example 103] | 2 | 16 | 3 | 0.3 | 0.004 | 6
